# Entries after “also recorded” stand apart in the source; their conditions may differ.
# Target: T1, EphA4 (Rattus norvegicus, UniProt D3ZZK3)
# T1 construct: endogenous in cells; host or cells: primary rat cortical neurons (A5), primary rat hippocampal neurons (A7)
# Test: Ephrin-A1-induced EphA4 cluster assay in cultured hippocampal neurons
# Format: cell-based
# Settings: 30 μM
# Procedure: For EphA4 clustering, neurons were stained with anti-EphA4 and anti-Tau-1 antibodies. For the growth cone collapse assay, neurons were stained with Alexa Fluor 555-conjugated phalloidin (Molecular Probes) for filamentous actin and anti-Tau-1 antibody for axons. Collapsed growth cones were scored in a double-blinded manner. The experiments were repeated at least 3 times, and >50 neurons were analyzed for each experiment. Data are presented as mean±SEM.
# Rat hippocampal neurons were seeded on 48-well plates coated with poly-D-lysine (50 μg/mL) at 6000 cells per well. Neurons were incubated with Neurobasal medium (Invitrogen) supplemented with 2% B27 (Invitrogen). […] Neurons were then immunostained with anti-EphA4 and anti-Tau-1 antibodies. The cellular imaging and quantification of EphA4 clusters was performed using IN Cell Analyzer 6000 high content assay system (GE Healthcare). EphA4 clusters were quantified by calculating the proportion of total area of EphA4 clusters on axons against Tau positive area. Statistical analysis was performed with one-way ANOVA followed by Newman-Keuls Multiple Comparison Test (Prism 5 GraphPad Software).
# T1 sequence (D3ZZK3 20-986): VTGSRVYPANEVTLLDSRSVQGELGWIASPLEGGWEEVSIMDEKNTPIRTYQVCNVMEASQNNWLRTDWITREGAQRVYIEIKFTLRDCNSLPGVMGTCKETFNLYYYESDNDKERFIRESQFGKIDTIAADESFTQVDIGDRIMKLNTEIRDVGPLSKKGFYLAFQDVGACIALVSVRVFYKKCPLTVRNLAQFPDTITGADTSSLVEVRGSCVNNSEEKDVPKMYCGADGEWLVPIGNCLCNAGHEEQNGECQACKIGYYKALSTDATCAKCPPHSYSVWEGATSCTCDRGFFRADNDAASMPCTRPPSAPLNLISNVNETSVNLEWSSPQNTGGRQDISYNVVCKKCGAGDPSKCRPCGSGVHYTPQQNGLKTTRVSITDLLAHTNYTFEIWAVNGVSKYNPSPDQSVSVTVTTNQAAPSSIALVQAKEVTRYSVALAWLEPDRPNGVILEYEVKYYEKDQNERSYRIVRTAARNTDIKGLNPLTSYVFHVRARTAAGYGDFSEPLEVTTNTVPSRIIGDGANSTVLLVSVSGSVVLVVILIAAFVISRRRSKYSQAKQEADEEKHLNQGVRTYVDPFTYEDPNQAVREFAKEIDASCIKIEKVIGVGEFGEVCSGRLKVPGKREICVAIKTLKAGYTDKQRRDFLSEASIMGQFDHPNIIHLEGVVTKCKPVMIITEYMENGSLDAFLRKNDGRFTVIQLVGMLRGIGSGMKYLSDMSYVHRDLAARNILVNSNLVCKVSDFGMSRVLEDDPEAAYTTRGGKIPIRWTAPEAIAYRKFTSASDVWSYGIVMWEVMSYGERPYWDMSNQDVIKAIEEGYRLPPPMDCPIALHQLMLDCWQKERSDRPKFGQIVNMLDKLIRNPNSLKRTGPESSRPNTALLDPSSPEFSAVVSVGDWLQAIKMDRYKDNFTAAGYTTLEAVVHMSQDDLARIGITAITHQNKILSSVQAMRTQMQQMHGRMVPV
row,Structure (SMILES),potency on EphA4 inhibition (EphA4 clusters) compared to Rhy (words)
1,CC[C@H]1CN2CC[C@]3(C(=O)N(CCCCCCCCOc4ccc(OC)c(OC)c4)c4ccccc43)[C@@H]2C[C@@H]1/C(=C\OC)C(=O)OC [RHY-37],more potent effect on EphA4 inhibition than Rhy
2,CCC1CN2CCC3(C(=O)N(CCCCCCCOc4ccc(OC)c(OC)c4)c4ccccc43)C2CC1C(=COC)C(=O)OC (centres unmarked) [RHY-43],more potent effect on EphA4 inhibition than Rhy
3,CC[C@H]1CN2CC[C@]3(C(=O)N(CCCCCCCOc4ccc(O)cc4)c4ccccc43)[C@@H]2C[C@@H]1/C(=C\OC)C(=O)OC [RHY-48],comparable potency to Rhy
4,CCC1CN2CCC3(C(=O)N(CCCCCCCOc4ccc(OCc5ccccc5)cc4)c4ccccc43)C2CC1C(=COC)C(=O)OC (centres unmarked) [RHY-44],higher potency on EphA4 inhibition
5,CCC1CN2CCC3(C(=O)N(CCCCCCOC(=O)c4cc(OC)ccc4[N+](=O)[O-])c4ccccc43)C2CC1C(=COC)C(=O)OC (centres unmarked) [RHY-40],more potent; also recorded: higher potency on EphA4 inhibition than Rhy
6,CCC1CN2CCC3(C(=O)N(CCCCCCCCOc4ccc(O)cc4)c4ccccc43)C2CC1C(=COC)C(=O)OC (centres unmarked) [RHY-54],significantly more potent than Rhy; also recorded: more potent effect on EphA4 inhibition than Rhy
7,CCC1CN2CCC3(C(=O)N(CCCCCCOc4ccc(OC)c(OC)c4)c4ccccc43)C2CC1C(=COC)C(=O)OC (centres unmarked) [RHY-39],more potent effect on EphA4 inhibition than Rhy
8,CCC1CN2CCC3(C(=O)N(CCCCCCCCOc4ccc(OCc5ccccc5)cc4)c4ccccc43)C2CC1C(=COC)C(=O)OC (centres unmarked) [RHY-49],higher potency on EphA4 inhibition
9,CCC1CN2CCC3(C(=O)N(CCCCCCBr)c4ccccc43)C2CC1C(=COC)C(=O)OC (centres unmarked) [RHY-27],higher potency on EphA4 inhibition
10,CC[C@H]1CN2CC[C@]3(C(=O)N(CCCCCCCCOC(=O)c4cc(OC)ccc4[N+](=O)[O-])c4ccccc43)[C@@H]2C[C@@H]1/C(=C\OC)C(=O)OC [RHY-50],more potent; also recorded: higher potency on EphA4 inhibition than Rhy
11,CCC1CN2CCC3(C(=O)N(CCCCCCCCOC(=O)c4ccc(Br)cc4I)c4ccccc43)C2CC1C(=COC)C(=O)OC (centres unmarked) [RHY-52],More Potent Effect on EphA4 Inhibition than Rhy
12,CC[C@H]1CN2CC[C@]3(C(=O)N(CCCCCBr)c4ccccc43)[C@@H]2C[C@@H]1/C(=C\OC)C(=O)OC [RHY-23],higher potency on EphA4 inhibition
13,CCC1CN2CCC3(C(=O)N(CCCCCCCCCBr)c4ccccc43)C2CC1C(=COC)C(=O)OC (centres unmarked) [RHY-31],higher potency on EphA4 inhibition
14,CC[C@H]1CN2CC[C@]3(C(=O)N(CCCCCCCOC(=O)c4cc(OC)ccc4[N+](=O)[O-])c4ccccc43)[C@@H]2C[C@@H]1/C(=C\OC)C(=O)OC [RHY-45],more potent; also recorded: higher potency on EphA4 inhibition than Rhy
15,CCC1CN2CCC3(C(=O)N(CCCCCCCCBr)c4ccccc43)C2CC1C(=COC)C(=O)OC (centres unmarked) [RHY-34],higher potency on EphA4 inhibition
16,CCC1CN2CCC3(C(=O)N(CCCCCCCBr)c4ccccc43)C2CC1C(=COC)C(=O)OC (centres unmarked) [RHY-35],higher potency on EphA4 inhibition
17,CC[C@H]1CN2CC[C@]3(C(=O)N(CCCCCCOc4ccc(OCc5ccccc5)cc4)c4ccccc43)[C@@H]2C[C@@H]1/C(=C\OC)C(=O)OC [RHY-42],higher potency on EphA4 inhibition
18,CCC1CN2CCC3(C(=O)N(CCCCCCCCCOc4ccc(O)cc4)c4ccccc43)C2CC1C(=COC)C(=O)OC (centres unmarked) [RHY-60],more potent effect on EphA4 inhibition than Rhy
19,CCC1CN2CCC3(C(=O)N(CCCCCCCCCOc4ccc(OCc5ccccc5)cc4)c4ccccc43)C2CC1C(=COC)C(=O)OC (centres unmarked) [RHY-55],higher potency on EphA4 inhibition
20,CCC1CN2CCC3(C(=O)N(CCCCCCCCCOC(=O)C=Cc4ccc(OC)cc4)c4ccccc43)C2CC1C(=COC)C(=O)OC (centres unmarked) [RHY-59],more potent; also recorded: higher potency on EphA4 inhibition than Rhy

# Same assay, conditions: 30 μM, 20 min pretreatment, then ephrin-A1 40 min; some sentences add 'when compared to Rhy'
row,Structure (SMILES),reduction of ephrin-A1-induced EphA4 clustering [%]
1,CC[C@H]1CN2CC[C@]3(C(=O)N(CCCCCCCCCl)c4ccccc43)[C@@H]2C[C@@H]1/C(=C\OC)C(=O)OC [RHY-26],~80

# Same assay, conditions: 30 μM; listed as RHY60
row,potency on EphA4 inhibition (EphA4 clusters) compared to Rhy (words),Structure (SMILES)
1,significantly more potent than Rhy,CCC1CN2CCC3(C(=O)N(CCCCCCCCCOc4ccc(O)cc4)c4ccccc43)C2CC1C(=COC)C(=O)OC (centres unmarked) [RHY-60]

# Same assay, conditions: 50 μM
Structure (SMILES),potency on EphA4 inhibition (EphA4 clusters) compared to Rhy (words),inhibitory effect on EphA4 cluster formation
CCC1CN2CCC3(C(=O)N(CCCCCCCCCOC(=O)c4ccc(OC)c(OC)c4)c4ccccc43)C2CC1C(=COC)C(=O)OC (centres unmarked) [RHY-57],more potent activity than Rhy; also recorded: more potent effect on EphA4 inhibition than Rhy,–
CCC1CN2CCC3(C(=O)N(CCCCCCOC(=O)c4ccc(OC)c(OC)c4)c4ccccc43)C2CC1C(=COC)C(=O)OC (centres unmarked) [RHY-33],comparable potency as Rhy,–
CCC1CN2CCC3(C(=O)N(Cc4ccccc4-c4ccccc4)c4ccccc43)C2CC1C(=COC)C(=O)OC (centres unmarked) [RHY-10],significantly reduced the EphA4 clusters compared to Rhy,most significant
CCC1CN2CCC3(C(=O)N(CC(=O)c4ccc(OC)cc4)c4ccccc43)C2CC1C(=COC)C(=O)OC (centres unmarked) [RHY-28],significantly reduced the EphA4 clusters compared to Rhy,most significant
C=CCN1C(=O)C2(CCN3CC(CC)C(C(=COC)C(=O)OC)CC32)c2ccccc21 (centres unmarked) [RHY-17],significantly reduced the EphA4 clusters compared to Rhy,most significant
CCC1CN2CCC3(C(=O)N(CCCCCCCCCNCCCCCCN)c4ccccc43)C2CC1C(=COC)C(=O)OC (centres unmarked) [RHY-32],higher potency on EphA4 inhibition,–
CCC1CN2CCC3(C(=O)N(CCCCCCCNCCCn4ccnc4)c4ccccc43)C2CC1C(=COC)C(=O)OC (centres unmarked) [RHY-47],higher potency on EphA4 inhibition,–
CCC1CN2CCC3(C(=O)N(CCCCCCNCCN4CCCC4)c4ccccc43)C2CC1C(=COC)C(=O)OC (centres unmarked) [RHY-41],higher potency on EphA4 inhibition,–
CCC1CN2CCC3(C(=O)N(CC=Cc4ccccc4)c4ccccc43)C2CC1C(=COC)C(=O)OC (centres unmarked) [RHY-9],significantly reduced the EphA4 clusters compared to Rhy,most significant
CC[C@H]1CN2CC[C@]3(C(=O)N(CCCCCCCCOC(=O)c4ccc(OC)c(OC)c4)c4ccccc43)[C@@H]2C[C@@H]1/C(=C\OC)C(=O)OC [RHY-36],more potent activity than Rhy; also recorded: more potent effect on EphA4 inhibition than Rhy,–
CCC1CN2CCC3(C(=O)N(CCCCCCCOC(=O)c4ccc(OC)c(OC)c4)c4ccccc43)C2CC1C(=COC)C(=O)OC (centres unmarked) [RHY-38],more potent activity than Rhy; also recorded: more potent effect on EphA4 inhibition than Rhy,–
CCC1CN2CCC3(C(=O)N(Cc4cccc(Cl)c4)c4ccccc43)C2CC1C(=COC)C(=O)OC (centres unmarked) [RHY-19],significantly reduced the EphA4 clusters compared to Rhy,most significant
CC[C@H]1CN2CC[C@]3(C(=O)N(CCCCCCCNCCN4CCCC4)c4ccccc43)[C@@H]2C[C@@H]1/C(=C\OC)C(=O)OC [RHY-46],higher potency on EphA4 inhibition,–

# Same assay, conditions: dose-dependent experiment, FIG. 17
row,Structure (SMILES),inhibitory effect on EphA4 clusters (potency) compared to Rhy [fold]
1,CC[C@H]1CN2CC[C@]3(C(=O)N(CCCCCCCCOc4ccc(OC)c(OC)c4)c4ccccc43)[C@@H]2C[C@@H]1/C(=C\OC)C(=O)OC [RHY-37],12
2,CC[C@H]1CN2CC[C@]3(C(=O)N(CCCCCCCCCl)c4ccccc43)[C@@H]2C[C@@H]1/C(=C\OC)C(=O)OC [RHY-26],5

# Same assay, conditions: same assay system; no data given
row,Structure (SMILES),potency as EphA4 inhibitor
1,CCC1CN2CCC3(C(=O)N(CCCCCCCCCCCCCl)c4ccccc43)C2CC1C(=COC)C(=O)OC (centres unmarked) [RHY-67],tested and verified
2,CCC1CN2CCC3(C(=O)N(CCCCCCCl)c4ccccc43)C2CC1C(=COC)C(=O)OC (centres unmarked) [RHY-63],tested and verified
3,CCC1CN2CCC3(C(=O)N(CCCCl)c4ccccc43)C2CC1C(=COC)C(=O)OC (centres unmarked) [RHY-61],tested and verified
4,CCC1CN2CCC3(C(=O)N(CCCCCCCCCCCl)c4ccccc43)C2CC1C(=COC)C(=O)OC (centres unmarked) [RHY-65],tested and verified
5,CCC1CN2CCC3(C(=O)N(CCCCCCCCNCCN4CCCC4)c4ccccc43)C2CC1C(=COC)C(=O)OC (centres unmarked) [RHY-53],tested and verified
6,CCC1CN2CCC3(C(=O)N(CCCCCCCCCCl)c4ccccc43)C2CC1C(=COC)C(=O)OC (centres unmarked) [RHY-62],tested and verified
7,CCC1CN2CCC3(C(=O)N(CCCCCCCCCCCCl)c4ccccc43)C2CC1C(=COC)C(=O)OC (centres unmarked) [RHY-66],tested and verified
8,CCC1CN2CCC3(C(=O)N(CCCCCCCCl)c4ccccc43)C2CC1C(=COC)C(=O)OC (centres unmarked) [RHY-64],tested and verified
